What was measured:
[1] = Particle size and PDI of hand-mixed mRNA or DNA LNPs; type: physicochemical; details: for PDI DNA / Particle Size (nm) DNA: hand-mixed DNA LNPs: compound/DOPE/Cholesterol/DMG-PEG2000 38/50/10.0/2.0, lipid:DNA 45:1; for PDI RNA / Particle Size (nm) RNA: hand-mixed mRNA LNPs: compound/DOPE/Cholesterol/DMG-PEG2000 41.44/45.85/10/2.7, lipid:RNA 40:1
Description: (§1) LNP compositions of the present disclosure comprising exemplary compounds of Formula (I) were prepared by combining various percentages of an exemplary compound of Formula (I), the phospholipid DOPE, the structural lipid cholesterol (Chol) and 1,2-dimyristoyl-sn-glycerol methoxypolyethylene glycol (DMG-PEG2000; Avanti Polar Lipids, Alabaster, Alabama, USA).
(§2) Individual 25 mg/ml stock solutions were prepared by solubilizing the lipids in 200-proof HPLC-grade ethanol and stock solutions were stored at −80° C. until formulated. At the time of formulation, the lipid stock solutions were briefly allowed to equilibrate to room temp and then placed on a hot plate maintained at a temperature range of 50-55° C.
A 1 mg/ml solution of the desired mRNA or DNA to be incorporated into the LNPs was added to 150 mM sodium acetate buffer (pH 5.2) to form a stock solution and kept on ice. The aqueous mRNA or DNA was then added to the lipids as shown in Table 25 or 26 and hand-mixed vigorously with a single channel pipettor.
(§3) The resultant mRNA or DNA LNP compositions were then transferred to a Repligen Float-A-Lyzer dialysis device—having a molecular weight cut off (MWCO) of 8-10 kDa (Spectrum Chemical Mfg. Corp, CA, USA) and processed by dialysis against phosphate buffered saline (PBS) (dialysate:dialysis buffer volume at least 1:200 v/v), pH 7.4 overnight at 4° C. (or alternatively room temperature for at least 4 hours), to remove the 25% ethanol and achieve a complete buffer exchange. In some experiments the LNPs were further concentrated by in an Amicon® Ultra-4 centrifugal filter unit, MWCO-30 kDa (Millipore Sigma, USA) spun at ˜4100×g in an ultracentrifuge. The mRNA and DNA LNPs were then stored at 4° C. until further use.
LNP compositions of the present disclosure comprising mRNA or DNA encoding firefly luciferase (hereafter “Flue”; TriLink) and COMPOUNDS 9-21 were prepared as described in Example 14 by combining one of COMPOUNDS 9-21, the phospholipid DOPE, the structural lipid cholesterol (Chol) and 1,2-dimyristoyl-sn-glycerol methoxypolyethylene glycol (DMG-PEG2000) in the percentages presented in Tables 27 and 28:
The physical characteristics of the resulting LNPs were analyzed.

[2] = Physical characterisation of mRNA-containing LNPs (DLS, NTA, zeta potential); type: physicochemical; details: Fluc mRNA LNPs: compound/DOPE/Cholesterol/DMG-PEG2000 41.44/45.85/10/2.7, lipid:RNA 40:1 (w/w)
Description: as §1, with “A series of ten multi-component LNP” for “LNP”, “was” for “were”
as §2
A 1 mg/mi solution of the desired mRNA to be incorporated into the LNPs was added to 150 mM sodium acetate buffer (pH 5.2) to form a stock solution and kept on ice. The lipid phase was mixed with the aqueous m RNA phase inside a microfluidic chip using a NanoAssemblr® instrument (Precision Nanosystems, Vancouver, BC, Canada) according to the manufacturer's instructions to form LNP compositions comprising encapsulated mRNAs.
as §3, with “mRNA” for “mRNA or DNA”, “mRNA” for “mRNA and DNA”
A series of multicomponent LNP compositions comprising one of COMPOUNDS 1-8 described in Example 1 and the mRNA encoding flue was prepared according to Example 2 and the physical characteristics of the resulting LNPs were analyzed.
In a separate experiment, LNP compositions of the present disclosure comprising mRNA encoding firefly luciferase (hereafter “Fluc”; TriLink) and COMPOUNDS 1-8 were prepared as described in Example 2 by combining one of COMPOUNDS 1-8, the phospholipid DOPE, the structural lipid cholesterol (Chol) and 1,2-dimyristoyl-sn-glycerol methoxypolyethylene glycol (DMG-PEG2000) in the percentages presented in Table 8: […]

[3] = Physical characterisation of DNA-containing LNPs (DLS, NTA, zeta potential); type: physicochemical; details: nano-pB-EF1a-GFP DNA LNPs: compound/DOPE/Cholesterol/DMG-PEG2000 38.0/50.0/10.0/2.0, lipid:DNA 45:1 (w/w)
Description: LNP compositions of the present disclosure comprising DNA, a nanoplasmid encoding a piggyBac transposon, wherein the piggyBac transposon comprised GFP under control of the EF1a promoter (herein referred to as the nano-pB-EF1a-GFP), and one of COMPOUNDS 1-8 were prepared as described in Example 3 by combining one of COMPOUNDS 1-8, the phospholipid DOPE, the structural lipid cholesterol (Chol) and 1,2-dimyristoyl-sn-glycerol methoxypolyethylene glycol (DMG-PEG2000) in the following percentages in Table 20: […]

[4] = tested on: BALB/C mice; assay: In vivo intramuscular LNP delivery of fLuciferase mRNA, bioluminescent imaging; details: intramuscular 20 μg fLuciferase mRNA, right hind limb, BLI at 4 hr; LNP compound/DOPE/Cholesterol/DMG-PEG2000 33.5/32.0/33.5/1.0, lipid:RNA 25:1
Description: (§4) Adult female BALB/C mice (n=2/group) were intramuscularly administered in the right hind limb of each mouse 20 μg of 5′-CleanCap-fLuciferase mRNA (TriLink Biotech) formulated with LNP composition comprising COMPOUND 2 as prepared according to Example 2 in the following percentages shown in Table 16:
The location and extent of luciferase expression in treated and untreated mice were determined at 4 hr and 24 hr by bioluminescent imaging (BLI) of anesthetized mice using an IVIS Lumina in vivo imaging system (Perkin Elmer) according to the manufacturer's instructions. Briefly, mice were anesthetized using isoflurane in oxygen, and placed supine on a heated stage. Mice were then administered D-luciferin (Perkin-Elmer #122799) IP, and BLI was performed.
as §4, with “In another experiment, adult female” for “Adult female”, “comprising one of COMPOUNDS 3-8” for “comprising COMPOUND 2”, “Example 3” for “Example 2”, “Table 18:” for “Table 16:”
The location and extent of luciferase expression in treated and untreated mice were determined at 4 hr by bioluminescent imaging (BLI) of anesthetized mice as described above.

| Compound | PDI DNA [1] | Particle Size (nm) DNA [1] [nm] | PDI RNA [1] | Particle Size (nm) RNA [1] [nm] | further results |
| --- | --- | --- | --- | --- | --- |
| CC(C)C(CCC1CCC(C(=O)OCCCCCCSCCCCCCCCSCCCCCCOC(=O)C2CCC(CCC(SCCN(C)C)C(C)C)C(SCCN(C)C)C2)CC1SCCN(C)C)SCCN(C)C (stereo not shown) [Compound 21] | 0.230 | 161.1 | 0.273 | 144.9 |  |
| CC(C)C(CCC1CCC(C(=O)OCCCCCCCCCCCCCCCCCCCCOC(=O)C2CCC(CCC(SCCN(C)C)C(C)C)C(SCCN(C)C)C2)CC1SCCN(C)C)SCCN(C)C (stereo not shown) [Compound 16] | 0.277 | 149.8 | 0.327 | 188.8 |  |
| CC(C)C(CCC(C)C(CCC1CCC(C(=O)OCCCCCCCCCCCCOC(=O)C2CCC(CCC(SCCN(C)C)C(C)CCC(SCCN(C)C)C(C)C)C(SCCN(C)C)C2)CC1SCCN(C)C)SCCN(C)C)SCCN(C)C (stereo not shown) [Compound 11] | 0.366 | 511.8 | 0.156 | 270.4 |  |
| CC(C)C(CCC(C)C(CCC1CCC(C(=O)NC2CCC(CC3CCC(NC(=O)C4CCC(CCC(SCCN(C)C)C(C)CCC(SCCN(C)C)C(C)C)C(SCCN(C)C)C4)CC3)CC2)CC1SCCN(C)C)SCCN(C)C)SCCN(C)C (stereo not shown) [Compound 5] |  |  |  |  | Diameter (DLS; nm) [2]: 91.8 nm; Diameter (NTA; nm) [2]: 84.4 nm; PDI [2]: 0.389; Total Particles/ml [2]: 7.03E+10 Particles/ml; Zeta Potential (mV) [2]: 0.18 mV; Diameter (DLS; nm) [3]: 82.0 nm; Diameter (NTA; nm) [3]: 85.8 nm; PDI [3]: 0.168; Total Particles/ml [3]: 2.31E+11 Particles/ml; Zeta Potential (mV) [3]: 0.21 mV; Avg IM flux n = 2 [4]: 2.12E+5 |
| CC(C)C(CCC(C)C(CCC1CCC(C(=O)OCCCCCCCCCCCCCCCCCCCCOC(=O)C2CCC(CCC(SCCN(C)C)C(C)CCC(SCCN(C)C)C(C)C)C(SCCN(C)C)C2)CC1SCCN(C)C)SCCN(C)C)SCCN(C)C (stereo not shown) [Compound 12] | 0.251 | 228.0 | 0.216 | 162.7 |  |
| CC(C)C(CCC(C)C(CCC1CC2C(=O)N(c3ccc(N4C(=O)C5CC(CCC(SCCN(C)C)C(C)CCC(SCCN(C)C)C(C)C)C(SCCN(C)C)CC5C4=O)cc3)C(=O)C2CC1SCCN(C)C)SCCN(C)C)SCCN(C)C (stereo not shown) [Compound 7] |  |  |  |  | Diameter (DLS; nm) [2]: 123.5 nm; Diameter (NTA; nm) [2]: 108.4 nm; PDI [2]: 0.113; Total Particles/ml [2]: 5.10E+10 Particles/ml; Zeta Potential (mV) [2]: −0.29 mV; Diameter (DLS; nm) [3]: 110.2 nm; Diameter (NTA; nm) [3]: 90.8 nm; PDI [3]: 0.224; Total Particles/ml [3]: 5.52E+11 Particles/ml; Zeta Potential (mV) [3]: 0.96 mV; Avg IM flux n = 2 [4]: 2.4E+5 |
| CC(C)C(CCC1CCC(C(=O)OCCCCCCCCCCCCOC(=O)C2CCC(CCC(SCCN(C)C)C(C)C)C(SCCN(C)C)C2)CC1SCCN(C)C)SCCN(C)C (stereo not shown) [Compound 15] | 0.201 | 375.6 | 0.208 | 267.1 |  |
| CC(C)C(CCC(C)C(CCC1CCC(C(=O)OCCCCCCSCCCCCCCCSCCCCCCOC(=O)C2CCC(CCC(SCCN(C)C)C(C)CCC(SCCN(C)C)C(C)C)C(SCCN(C)C)C2)CC1SCCN(C)C)SCCN(C)C)SCCN(C)C (stereo not shown) [Compound 20] | 0.189 | 229.6 | 0.211 | 221.0 |  |
| CC(C)C(CCC(C)C(CCC1CCC(C(=O)OCCCCCCOC(=O)C2CCC(CCC(SCCN(C)C)C(C)CCC(SCCN(C)C)C(C)C)C(SCCN(C)C)C2)CC1SCCN(C)C)SCCN(C)C)SCCN(C)C (stereo not shown) [Compound 10] | 0.403 | 291.2 | 0.120 | 254.1 |  |
| CC(C)C(CCC1CC2C(=O)N(c3ccc(N4C(=O)C5CC(CCC(SCCN(C)C)C(C)C)C(SCCN(C)C)CC5C4=O)cc3)C(=O)C2CC1SCCN(C)C)SCCN(C)C (stereo not shown) [Compound 8] |  |  |  |  | Avg IM flux n = 2 [4]: 8.31E+4 |
| CC(C)C(CCC1CCC(C(=O)OCCCCCCOC(=O)C2CCC(CCC(SCCN(C)C)C(C)C)C(SCCN(C)C)C2)CC1SCCN(C)C)SCCN(C)C (stereo not shown) [Compound 14] | 0.272 | 392.2 | 0.249 | 222.5 |  |

Source: US12642870B2, “Compositions and methods for delivery of nucleic acids” (Poseida Therapeutics, Inc., priority 2020, dated 2026)
